In publication PMC2364878, “Insecticidal Effects of Organotin(IV) Compounds on Plutella Xylostella (L.) Larvae. II. Inhibitory Potencies Against Acetylcholinesterase and Evidence for Synergism in Tests With Bacillus Thuringiensis(BER.) and Malathion” (Metal-Based Drugs, 1994):
Like-named read-outs stand apart in the source and are kept apart here.

Columns and labels:
[1] = system: T1, acetylcholinesterase (AChE), S-strain DBM larvae; assay: Ellman colorimetric assay, […] nm, linear regression; assay type: biochemical, Plutella xylostella; settings: acetylthiocholine iodide 0.5 mM, DTNB 0.3 mM, 0.1 M phosphate pH 7.0, 6 min, read-out: I50
T1 construct: gene ace1; native, 1,500 g supernatant of whole 4th instar larva homogenate, not purified

[2] = system: T2, acetylcholinesterase (AChE), R-strain DBM larvae; assay: Ellman colorimetric assay, […] nm, linear regression; assay type: biochemical, Plutella xylostella; settings: acetylthiocholine iodide 0.5 mM, DTNB 0.3 mM, 0.1 M phosphate pH 7.0, 6 min; above tested range (10^-3 to 10^-8 M); technical grade 90% a.i.; read-out: I50
T2 construct: gene ace1; native, 1,500 g supernatant of whole 4th instar larva homogenate, not purified

| SMILES | IC50 ([1]; technical grade 90% a.i.) | IC50 [2] | IC50 ([1]; above tested range (10^-3 to 10^-8 M), technical grade 84% a.i.) |
| --- | --- | --- | --- |
| CNC(=O)ON=C(C)SC [Methomyl] | 351 µM | 2360 µM | – |
| CCOC(=O)CC(SP(=S)(OC)OC)C(=O)OCC (stereo not drawn) [Malathion] | – | – | 33200 µM |
